From paper PMC10387993, “New pyrimidine-N-β-D-glucosides: synthesis, biological evaluation, and molecular docking investigations” (Turkish Journal of Chemistry, 2023)
≈ marks a conversion by molar mass, not a printed value. Read-outs that look alike come from different tables or passages of the source.

Assays:
Type in all cases: cell-based
MCF7 = experiment: cells; conditions: Homo sapiens; for LC50 (concentration causing 50% net cell loss relative to time zero): MCF7, read-out: LC50; for GI50 / IC50 / IC (total growth inhibition): MCF7, MTT; for IC50: read-out: IC50; for IC (total growth inhibition): read-out: TGI
How it was run: (§1)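 Cells were seeded at about 1 × 10^4 per well, brought to 200 μL with medium, and assessed by MTT: 4 h with MTT reagent, formazan dissolved in DMSO with Sorenson's buffer, absorbance read at 560 nm (690 nm reference). IC50 derived from percent inhibition relative to DMSO.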

in vitro = conditions: human, LC50
How it was run: as §1

normal FL cells = experiment: cells; conditions: FL normal cells, MTT; for IC50: read-out: IC50; for IC (total growth inhibition): read-out: TGI
How it was run: as §1

[1] = LDH cytotoxic activity assay, C6; conditions: rat, C6 glioma cells; for cytotoxicity at 24 h, 25 μg/mL: C6, 25 μg/mL; for cytotoxicity at 24 h, 50 μg/mL: C6, 50 μg/mL; for cytotoxicity at 24 h, 75 μg/mL: C6, 75 μg/mL; for cytotoxicity at 24 h, 100 μg/mL: C6, 100 μg/mL
How it was run: (§2)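 About 5 × 10^3 cells per well, in triplicate, exposed to 25, 50, 75 and 100 μg/mL of test compound for 24 h at 37 °C, 5% CO2. Cells grown in DMEM or RPMI 1640 with 10% FBS. LDH activity read as absorbance at 492–630 nm.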

[2] = LDH cytotoxic activity assay, HeLa; conditions: human, HeLa cells
How it was run: as §2

[3] = LDH cytotoxic activity assay, HT29; conditions: human, HT29 cells; for cytotoxicity at 24 h, 25 μg/mL: HT29, 25 μg/mL; for cytotoxicity at 24 h, 50 μg/mL: HT29, 50 μg/mL; for cytotoxicity at 24 h, 75 μg/mL: HT29, 75 μg/mL; for cytotoxicity at 24 h, 100 μg/mL: HT29, 100 μg/mL
How it was run: as §2

[4] = tested on: A. actinomycetemcomitans ATCC 33384; experiment: Microdilution MIC assay; conditions: Aggregatibacter actinomycetemcomitans, ATCC33384; A. actinomycetemcomitans ATCC 33384, 24 h at 35 °C
How it was run: (§3)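 Broth microdilution in microwells; plates incubated 24 h at 35 °C. MIC taken as the lowest concentration with no visible growth (turbidity), read by eye.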

E. coli ATCC 25922 = experiment: Microdilution MIC assay; conditions: Escherichia coli, ATCC25922; E. coli ATCC 25922, 24 h at 35 °C
How it was run: as §3

E. coli ESBL ATCC 35218 = experiment: Microdilution MIC assay; conditions: Escherichia coli, ATCC35218; E. coli ESBL ATCC 35218, 24 h at 35 °C
How it was run: as §3

E. faecalis ATCC 29212 = experiment: Microdilution MIC assay; conditions: E. faecalis ATCC 29212, 24 h at 35 °C
How it was run: as §3

[5] = tested on: E. faecalis VRE ATCC 19433; experiment: Microdilution MIC assay; conditions: Enterococcus faecalis; E. faecalis VRE ATCC 19433, 24 h at 35 °C
How it was run: as §3

[6] = tested on: P. aeruginosa AGME ATCC 27853; experiment: Microdilution MIC assay; conditions: Pseudomonas aeruginosa, ATCC27853; P. aeruginosa AGME ATCC 27853, 24 h at 35 °C
How it was run: as §3

S. aureus ATCC 25923 = experiment: Microdilution MIC assay; conditions: Staphylococcus aureus, ATCC25923, 24 h, S. aureus ATCC 25923, 24 h at 35 °C; read-out: MIC
How it was run: as §3

[7] = tested on: S. aureus MRSA ATCC 46300; experiment: Microdilution MIC assay; conditions: Staphylococcus aureus; S. aureus MRSA ATCC 46300, 24 h at 35 °C; read-out: MIC
How it was run: as §3

[8] = tested on: S. aureus MSSA ATCC 29213; experiment: Microdilution MIC assay; conditions: S. aureus MSSA ATCC 29213, 24 h at 35 °C
How it was run: as §3

S. gordonii NCTC 7870 = experiment: Microdilution MIC assay; conditions: Streptococcus gordonii, NCTC7870; S. gordonii NCTC 7870, 24 h at 35 °C
How it was run: as §3

S. mutans ATCC 35668 = experiment: Microdilution MIC assay; conditions: S. mutans ATCC 35668, 24 h at 35 °C
How it was run: as §3

[9] = Enterococcus faecalis, ATCC29212, 24 h, read-out: MIC
[10] = Staphylococcus aureus, 24 h, read-out: MIC
[11] = Streptococcus mutans, ATCC35668, 24 h, read-out: MIC

| Structure (SMILES) | LC50 (concentration causing 50% net cell loss relative to time zero) (MCF7) | GI50 (MCF7) | IC50 (MCF7) | IC (total growth inhibition) (MCF7) | LC50 (concentration causing 50% net cell loss) (in vitro) | GI50 (normal FL cells) | IC50 (normal FL cells) | IC (total growth inhibition) (normal FL cells) | cytotoxicity at 24 h, 25 μg/mL [1] | cytotoxicity at 24 h, 50 μg/mL [1] | cytotoxicity at 24 h, 75 μg/mL [1] | cytotoxicity at 24 h, 100 μg/mL [1] | cytotoxicity at 24 h, 25 μg/mL [2] | cytotoxicity at 24 h, 50 μg/mL [2] | cytotoxicity at 24 h, 75 μg/mL [2] | cytotoxicity at 24 h, 100 μg/mL [2] | cytotoxicity at 24 h, 25 μg/mL [3] | cytotoxicity at 24 h, 50 μg/mL [3] | cytotoxicity at 24 h, 75 μg/mL [3] | cytotoxicity at 24 h, 100 μg/mL [3] | further results |
| --- | --- | --- | --- | --- | --- | --- | --- | --- | --- | --- | --- | --- | --- | --- | --- | --- | --- | --- | --- | --- | --- |
| CC(=O)OC[C@H]1O[C@@H](Nc2nc(-c3ccncc3)cc(-c3ccccc3C)n2)[C@H](OC(C)=O)[C@@H](OC(C)=O)[C@@H]1OC(C)=O [Compound 12, 2,3,4,6-tetra-O-acetyl-N-[4-(2-methylphenyl)-6-pyridin-4-ylpyrimidin-2-yl]-β-D-glucopyranosylamine] | > 500 µg/mL | 1.22 µg/mL (≈ 2.06 µM) | > 500 µg/mL | > 500 µg/mL | > 500 µg/mL | 3.68 µg/mL (≈ 6.21 µM) | > 500 µg/mL | > 500 µg/mL | 21.1% | 46.7% | 75.2% | 87.4% | 18.8% | 30.8% | 42.6% | 49.6% | 30.7% | 41.9% | 62.6% | 77.6% | MIC [4]: > 1000 µg/mL; MIC (E. coli ATCC 25922): > 1000 µg/mL; MIC (E. coli ESBL ATCC 35218): > 1000 µg/mL; MIC (E. faecalis ATCC 29212; [9]): 250 µg/mL (≈ 422 µM); MIC [5]: 1000 µg/mL (≈ 1690 µM); MIC [6]: > 1000 µg/mL; MIC (S. aureus ATCC 25923): > 1000 µg/mL; MIC [7]: 500 µg/mL (≈ 844 µM); MIC [8, 10]: 1000 µg/mL (≈ 1690 µM); MIC (S. gordonii NCTC 7870): > 1000 µg/mL; MIC (S. mutans ATCC 35668): 62.5 µg/mL (≈ 105 µM); MIC (S. mutans ATCC 35668; [11]): 62.5 to 125 µg/mL (≈ 105 to 211 µM) |
| CC(=O)OC[C@H]1O[C@@H](Nc2nc(-c3cccc(C)c3)cc(-c3ccccn3)n2)[C@H](OC(C)=O)[C@@H](OC(C)=O)[C@@H]1OC(C)=O [Compound 13, 2,3,4,6-tetra-O-acetyl-N-[4-(3-methylphenyl)-6-pyridin-2-ylpyrimidin-2-yl]-β-D-glucopyranosylamine] | > 500 µg/mL | 1.84 µg/mL (≈ 3.1 µM) | 297 µg/mL (≈ 500 µM) | 397 µg/mL | > 500 µg/mL | 1.63 µg/mL (≈ 2.75 µM) | 18.2 µg/mL (≈ 30.7 µM) | 19.1 µg/mL | 15% | 51.2% | 77.1% | 98.3% | 18.1% | 28% | 42.8% | 50.9% | 31.7% | 45.5% | 66.4% | 79.2% | MIC [4]: > 1000 µg/mL; MIC (E. coli ATCC 25922): > 1000 µg/mL; MIC (E. coli ESBL ATCC 35218): > 1000 µg/mL; MIC (E. faecalis ATCC 29212): 31.25 µg/mL (≈ 52.7 µM); MIC (E. faecalis ATCC 29212; [9]): 31.2 to 125 µg/mL (≈ 52.7 to 211 µM); MIC [5]: 1000 µg/mL (≈ 1690 µM); MIC [6]: > 1000 µg/mL; MIC (S. aureus ATCC 25923): 500 µg/mL (≈ 844 µM); MIC [7]: 500 µg/mL (≈ 844 µM); MIC [8]: 125 µg/mL (≈ 211 µM); MIC [8, 10]: 62.5 to 125 µg/mL (≈ 105 to 211 µM); MIC (S. gordonii NCTC 7870): > 1000 µg/mL; MIC (S. mutans ATCC 35668): 125 µg/mL (≈ 211 µM); MIC (S. mutans ATCC 35668; [11]): 62.5 to 125 µg/mL (≈ 105 to 211 µM) |
| CC(=O)OC[C@H]1O[C@@H](Nc2nc(-c3cccnc3)cc(-c3cccc(C)c3)n2)[C@H](OC(C)=O)[C@@H](OC(C)=O)[C@@H]1OC(C)=O [Compound 14, 2,3,4,6-tetra-O-acetyl-N-[4-(3-methylphenyl)-6-pyridin-3-ylpyrimidin-2-yl]-β-D-glucopyranosylamine] | > 500 µg/mL | 1.95 µg/mL (≈ 3.29 µM) | > 500 µg/mL | > 500 µg/mL | > 500 µg/mL | 118 µg/mL (≈ 199 µM) | > 500 µg/mL | > 500 µg/mL | 18.4% | 35.3% | 70.2% | 86.7% | 16.6% | 28.8% | 33.5% | 48.8% | 21% | 44.6% | 61.8% | 72.2% | MIC [4]: > 1000 µg/mL; MIC (E. coli ATCC 25922): > 1000 µg/mL; MIC (E. coli ESBL ATCC 35218): > 1000 µg/mL; MIC (E. faecalis ATCC 29212): 31.25 µg/mL (≈ 52.7 µM); MIC (E. faecalis ATCC 29212; [9]): 31.2 to 125 µg/mL (≈ 52.7 to 211 µM); MIC [5]: 1000 µg/mL (≈ 1690 µM); MIC [6]: > 1000 µg/mL; MIC (S. aureus ATCC 25923): 500 µg/mL (≈ 844 µM); MIC [7]: 250 µg/mL (≈ 422 µM); MIC [8]: 125 µg/mL (≈ 211 µM); MIC [8, 10]: 62.5 to 125 µg/mL (≈ 105 to 211 µM); MIC (S. gordonii NCTC 7870): > 1000 µg/mL; MIC (S. mutans ATCC 35668): 62.5 µg/mL (≈ 105 µM); MIC (S. mutans ATCC 35668; [11]): 62.5 to 125 µg/mL (≈ 105 to 211 µM) |
